Results from paper PMC6021502, “Cannabigerol Action at Cannabinoid CB1 and CB2 Receptors and at CB1–CB2 Heteroreceptor Complexes” (Frontiers in Pharmacology, 2018).
Where two headings read alike, the source gives them in different places.

Key:
[1] = biological target: T1, human CB1 receptor (Homo sapiens, UniProt P21554); assay: biochemical; assay type: binding; conditions: radioligand 0.3 nM [3H]-CP-55940, CHO membranes
T1 construct: expressed in transfected cells; membranes

[2] = biological target: T2, human CB2 receptor (Homo sapiens, UniProt P34972); assay: [3H]-CP-55940 competition binding, CHO membranes; conditions: radioligand 0.3 nM [3H]-CP-55940, CHO membranes
T2 construct: expressed in transfected cells; membranes

[3] = biological target: T3, CB2R in a CB1–CB2 receptor heteromer context (Homo sapiens, UniProt P34972); assay: Homogeneous HTRF competition binding in living HEK-293T cells expressing SNAP-CB2R and CB1R; conditions: 20 nM fluorescent ligand, read-out: Ki, HTRF competition of fluorophore-conjugated CM-157 in the presence of CB1R
T3 construct: host or cells: HEK-293T, transient co-transfection (PEI)

[4] = system: T4, CB1R; assay: cAMP determination in HEK-293T cells; assay type: cell-based, human
T4 construct: expressed in transfected cells; host or cells: HEK-293T, transient transfection (PEI)
Method: (§1) HEK-293T cells were grown in DMEM medium (Gibco, Paisley, Scotland, United Kingdom) supplemented with 2 mM L-glutamine, 100 U/mL penicillin/streptomycin, MEM Non-Essential Amino Acids Solution (1/100) and 5% (v/v) heat inactivated Foetal Bovine Serum (FBS) (Invitrogen, Paisley, Scotland, United Kingdom). […] Cells were transiently transfected with the PEI (Polyethylenimine, Sigma, St. Louis, MO, United States) method as previously described ([Medrano et al., 2017]; [Navarro et al., 2018b]) and used for functional assays 48 h later (unless otherwise stated).
(§2) Signaling experiments have been performed as previously described ([Navarro et al., 2010], [2016], [2018b]; [Hinz et al., 2018]). Two hours before initiating the experiment, HEK-293T cell-culture medium was replaced by serum-starved DMEM medium. Then, cells were detached, resuspended in growing medium containing 50 μM zardaverine and placed in 384-well microplates (2,500 cells/well). Cells were pretreated (15 min) with CBG -or vehicle- and stimulated with agonists (15 min) before adding 0.5 μM forskolin or vehicle. Readings were performed after 15 min incubation at 25°C. HTRF energy transfer measures were performed using the Lance Ultra cAMP kit (PerkinElmer, Waltham, MA, United States). Fluorescence at 665 nm was analyzed in a PHERAstar Flagship microplate reader equipped with an HTRF optical module (BMG Lab Technologies, Offenburg, Germany).

[5] = system: T5, CB2R; assay: cAMP determination in HEK-293T cells; assay type: cell-based, human
T5 construct: expressed in transfected cells; host or cells: HEK-293T, transient transfection (PEI)
Method: as §1, §2

[6] = system: T6, CB1R and CB2R (CB1–CB2 heteroreceptor complexes); assay: cAMP determination in HEK-293T cells co-expressing both receptors; assay type: cell-based, human
T6 construct: expressed in transfected cells; host or cells: HEK-293T, transient co-transfection (PEI)
Method: as §1
as §2, with “HTRF energy transfer measures were performed using the Lance Ultra cAMP kit (PerkinElmer, Waltham, MA, United States).” left out

[7] = system: T6, CB1R and CB2R (CB1–CB2 heteroreceptor complexes); assay: ERK1/2 phosphorylation in HEK-293T cells co-expressing both receptors; assay type: cell-based, human
Method: as §1
To determine ERK1/2 phosphorylation, 50,000 HEK-293T cells/well were plated in transparent Deltalab 96-well microplates and kept at the incubator for 24 h. 2 to 4 h before the experiment, the medium was substituted by serum-starved DMEM medium. Then, cells were pre-treated at 25°C for 10 min with vehicle or CBG in serum-starved DMEM medium and stimulated for an additional 7 min with the specific agonists. Cells were then washed twice with cold PBS before addition of lysis buffer (20 min treatment). 10 μL of each supernatant were placed in white ProxiPlate 384-well microplates and ERK 1/2 phosphorylation was determined using AlphaScreen®SureFire® kit (Perkin Elmer) following the instructions of the supplier and using an EnSpire® Multimode Plate Reader (PerkinElmer, Waltham, MA, United States).

[8] = system: T4, CB1R; assay: Label-free dynamic mass redistribution (DMR) in HEK-293T cells; assay type: cell-based, human
Method: as §1
(§3) Cell mass redistribution induced upon receptor activation was detected by illuminating the underside of a biosensor with polychromatic light and measuring the changes in the wavelength of the reflected monochromatic light. The magnitude of this wavelength shift (in picometers) is directly proportional to the amount of DMR. HEK-293T cells were seeded in 384-well sensor microplates to obtain 70–80% confluent monolayers constituted by approximately 10,000 cells per well. Previous to the assay, cells were washed twice with assay buffer (HBSS with 20 mM HEPES, pH 7.15) and incubated for 2 h with assay-buffer containing 0.1% DMSO (24°C, 30 μL/well). Hereafter, the sensor plate was scanned and a baseline optical signature was recorded for 10 min before adding 10 μL of CBG for 30 min followed by the addition of 10 μL of specific agonists; all test compounds were dissolved in assay buffer. The cell signaling signature was determined using an EnSpire® Multimode Plate Reader (PerkinElmer, Waltham, MA, United States) by a label-free technology. Then, DMR responses were monitored for at least 5,000 s. Results were analyzed using EnSpire Workstation Software v 4.10.

[9] = system: T5, CB2R; assay: as above; assay type: cell-based, human
Method: as §1, §3

[10] = biological target: CB2R; conditions: cited from earlier work
[11] = system: α2-adrenoceptor; design: method as in Cascio et al., 2010; conditions: ref Cascio et al., 2010; read-out: EC50 as α2-adrenoceptor agonist; cited from earlier work
[12] = CBG alone, 1 nM to 10 μM, CB1R-expressing cells
[13] = 100 nM or 1 μM CBG pretreatment, 100 nM AEA or JWH133, CB2R
[14] = CBG alone, 1 nM to 10 μM, CB2R-expressing cells
[15] = 100 nM CBG pretreatment, cells co-expressing CB1R and CB2R
[16] = CBG alone, dose-effect, cells expressing CB1R and CB2R

T3 sequence (P34972 whole entry): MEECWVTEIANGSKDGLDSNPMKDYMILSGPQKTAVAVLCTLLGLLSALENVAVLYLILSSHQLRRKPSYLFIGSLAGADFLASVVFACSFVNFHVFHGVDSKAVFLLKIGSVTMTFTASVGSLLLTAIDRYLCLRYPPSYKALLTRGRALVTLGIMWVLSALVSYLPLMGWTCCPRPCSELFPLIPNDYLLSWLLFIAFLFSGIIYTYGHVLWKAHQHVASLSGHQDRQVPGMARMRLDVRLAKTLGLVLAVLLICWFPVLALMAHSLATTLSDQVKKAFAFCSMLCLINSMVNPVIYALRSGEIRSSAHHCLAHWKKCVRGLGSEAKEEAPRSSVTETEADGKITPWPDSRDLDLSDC
T3 sequence (P21554 whole entry partner): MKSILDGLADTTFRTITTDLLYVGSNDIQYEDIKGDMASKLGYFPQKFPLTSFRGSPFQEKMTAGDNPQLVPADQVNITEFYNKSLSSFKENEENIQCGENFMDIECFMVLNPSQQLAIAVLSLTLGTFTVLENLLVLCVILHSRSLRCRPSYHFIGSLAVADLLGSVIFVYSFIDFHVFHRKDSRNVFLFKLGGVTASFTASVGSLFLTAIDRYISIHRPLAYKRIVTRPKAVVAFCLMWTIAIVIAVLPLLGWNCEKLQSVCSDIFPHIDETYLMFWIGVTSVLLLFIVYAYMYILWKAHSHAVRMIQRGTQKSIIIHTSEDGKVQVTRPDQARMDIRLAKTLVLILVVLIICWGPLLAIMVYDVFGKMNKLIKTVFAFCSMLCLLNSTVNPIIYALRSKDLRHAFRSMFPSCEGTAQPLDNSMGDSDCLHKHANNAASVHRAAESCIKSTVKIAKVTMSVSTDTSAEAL
T2 sequence (P34972 whole entry): as the sequence (P34972 whole entry) above
T1 sequence (P21554 whole entry): as the sequence (P21554 whole entry partner) above

With CCCCCc1cc(O)c(C/C=C(\C)CCC=C(C)C)c(O)c1 [CBG, cannabigerol] the Ki [1] was 1050 nM, the Ki [2] was 1220 nM and the Ki [3] was 56 nM. For the same molecule, the “Effect on AEA and ACEA induced effects on forskolin-induced cAMP” value ([4]; 100 nM or 1 μM CBG pretreatment, 100 nM AEA or ACEA, CB1R) was “significant decrease”, the “Effect on forskolin induced cAMP levels” value [4, 12] was “small decrease” and the “Effect on AEA and JWH133 effects on forskolin-induced cAMP levels” value [5, 13] was “reduced the effects of AEA and JWH133”. The “Effect on forskolin-induced cAMP levels” value [5, 14] was “small and similar to that exerted in CB1R-expressing cells”, the “Effect on AEA, ACEA and/or JWH133 actions in cAMP-related assays” value [6, 15] was “significant effects, always reducing the effect of the agonists” and the “Effect on cAMP level” value [6, 16] was “additive”. For the same molecule, the “Effect on agonist actions on ERK1/2 phosphorylation” value [7, 15] was “negligible except for the negative modulation of the ACEA effect on ERK1/2 phosphorylation”, the “Effect on ERK1/2 phosphorylation” value [7, 16] was “negative cross-talk was still evident” and the “Effect on agonist-induced DMR” value ([8]; 100 nM or 1 μM CBG, 100 nM AEA or ACEA, CB1R) was “reduced the effect of the agonists”. The DMR signal [8, 12] was “slight effect”, the “Effect on AEA and JWH133 effects on label-free DMR” value [9, 13] was “reduced the effects of AEA and JWH133” and the DMR signal [9, 14] was “small and similar to that exerted in CB1R-expressing cells”. The Ki ([10]; CHO cells expressing the human CB2R, preliminary results, ref Gauson et al., 2007, Pertwee, 2008) was 300 to 500 nM, the Ki ([10]; CHO cells expressing the human receptor, ref Cascio et al., 2010) was 2600 nM and the EC50 [11] was 0.2 nM.
